Laboratory results from patent US20120035203A1, “BUTACLAMOL FOR THE TREATMENT OF AMYOTROPHIC LATERAL SCLEROSIS” (CAMBRIA PHARMACEUTICALS, INC., priority 2009, published 2012).
“Also recorded” adds a separate entry of the source. Peptide text beside a SMILES is read from it. * marks the point of attachment. Cbz = O=C(OCc1ccccc1)*

What was measured:
[1] = system: PC12 cells that express mutant G93A SOD1 as a YFP fusion protein; assay: high throughput cytotoxicity protection assay; conditions: for Activity in Protection Assay: neuroleptic agent screening; for protection of cell viability from MG132: 100 nM MG132 co-treatment; for EC50: Rattus norvegicus, PC-12, read-out: Protection ED50; for Protection Efficacy Conc.: concentration at which the % viability is given
Description: This idea was tested by examining the sensitivity of PC12 cells to SOD1 aggregates in the presence and absence of proteasome inhibitor MG132. PC12 cells expressing no SOD1, wild type SOD1, G85R SOD1 or G93A SOD1 were grown with or without MG132 (FIG. 1). […] The ability of protein aggregates to induce cell death was examined by treating G93A SOD1-expressing cells with MG132 for 24 h, removing the MG132 by washing and assaying cell viability after another 24 h.
PC12 cells expressing G93A SOD1 were treated with 100 nM MG132 with or without co-treatment with geldanamycin or radicicol.

[2] = system: PC12 cells expressing G93A SOD1; assay: sensitivity of PC12 cells to proteasome inhibitor (cell viability, calcein-AM); type: cell-based
Description: FIG. 1. Proteasome inhibition is selectively toxic to PC12 cells expressing mutant G93A SOD1. Cell survival was determined using the viability stain calcein-AM.

[3] = system: [3H] dopamine binding sites; conditions: cited from earlier work
[4] = system: [3H] haloperidol binding sites; conditions: cited from earlier work
[5] = high doses; cited from earlier work
[6] = system: PC12 cells expressing G85R SOD1; assay: mutant SOD1 direct protein aggregation assay; type: cell-based
Description: 4) Compounds could act directly on SOD1 in a manner that prevents mutant SOD1 aggregation. These possibilities were tested using an assay that directly measures protein aggregation. In addition, unlike the high throughput cytotoxicity protection assay, the protein aggregation assay is based on G85R SOD1; this broadens the scope of the screening strategy, and should eliminate compounds with highly specific activity (i.e., G93A SOD1 limited) against protein aggregation.
The identification of a positive control is a crucial step in assay development. Thus, PC12 cells expressing G85R or G93A mutant SOD1 were treated with MG132 to induce protein aggregation, and then co-treated with candidate chemical suppressors of protein aggregation.
To allow this assay to be used in a high-throughput manner, a Cellomics Arrayscan® high content microscopy system was used for screening and quantification. […] Because the most robust high content assays measure events on a per cell basis, it was necessary to select a fluorescent stain that marks whole cells to be used with a compatible stain that marks intracellular structures.

[7] = system: PC12 cells expressing G93A mutant SOD1; assay: MG132-induced SOD1 protein aggregation; type: cell-based
Description: (§1) In PC12 cells that express wild-type SOD1, SOD1 was diffusely localized throughout the cell (Matsumoto et al. J. Cell. Biol 2005, 171(1), 75-85). […] Therefore, these effects are likely to be due to MG132-induced proteasome inhibition, and not due to an off-target effect of MG132.
The identification of a positive control is a crucial step in assay development. Thus, PC12 cells expressing G85R or G93A mutant SOD1 were treated with MG132 to induce protein aggregation, and then co-treated with candidate chemical suppressors of protein aggregation. […] Both compounds induce heat shock transcription factor HSF-1, which in turn induces the heat shock response (FIG. 4). Treatment with radicicol reduced the proportion of cells with aggregates from 75% to 25%, a sufficient difference to allow visual scoring for compounds with efficacy equal to or greater than radicicol.

cellular toxicity = type: cell-based
Source text: Butaclamol is a diasteriomer and the two different isomeric forms can be physically separated.

[8] = system: G93A SOD1 transgenic mice; assay: transgenic G93A SOD1 ALS mouse model (open field, survival, neuropathology); type: in vivo; conditions: for Average life span: untreated 125.1±3.8
Source text: Subjects. […] The development of transgenic mice expressing G93A human SOD1 as a mouse model for the human disease has been regarded as a major breakthrough for development of ALS therapeutics. G93A SOD1 transgenic mice develop progressive hind limb weakness, muscle wasting, and neuropathological sequelae similar to those observed in patients with both sporadic and familial ALS. […] In addition, motor performance deteriorates as the disease progresses. The G93A SOD1 mouse model has played a prominent role in studying disease progression and especially for testing potential therapeutic agents, the latter in part because these animals have a shortened life span of approximately 126 days. In the present study, G93A SOD1 mice and littermate controls are bred from existing colonies at the Bedford VA Medical Hospital. The male G93A SOD1 mice are mated with B6SJL females and the offspring are genotyped by PCR using tail DNA. The number of SOD1 transgenes are assessed by PCR to ensure that transgene copy number remains constant. Mice are housed in micro-isolator cages in complete barrier facilities, and all studies are performed in these facilities. A 12 hour light-dark cycle is maintained and animals are given free access to food and water. Control and transgenic mice of the same age (±2 days) and from the same ‘f generation will be selected from multiple litters to form experimental cohorts (n=20 per group). Standardized criteria for age and parentage are used for placing individual mice into experimental groups/cohorts. Wild type mice are used for initial toxicity, tolerability, and pharmacokinetic studies and ALS mice are used for one-month tolerability studies.
Tolerability, Dosing, and Pharmacokinetics. The tolerable dose range and LD50 for butaclamol was determined in wild type mice by increasing the dose b.i.d. one-fold each injection. The route of administration was via i.p. administration, which was previously reported to produce robust effects in behavioral pharmacology studies, and starting dose range was guided by these prior studies (Lippmann et al., Life Sciences 16, 213, (1975); Humber et al., Mol. Pharmacol. 11, 833, (1975); Voith and Herr, Psychopharmacologia 42, 11, (1975)). One goal was to select a range of doses for the efficacy study starting ten fold below the maximum tolerated dose. Initial pharmacokinetic (pK) studies were conducted by giving animals a single dose, sacrificing them after 30 min, 1 h, 2 h, 4 h, 6 h, and 12 h, and dissecting brains and spinal cords and determining drug concentration in the target tissue. Drug steady-state level was determined in animals that had been dosed for 1 week prior to sacrifice. The range of dosing levels of 0.01, 0.1, and 1 mg/kg once a day were administered throughout the lives of the G93A mice.
Behavioral pharmacology. Behavioral testing for the transgenic G93A SOD1 mice were performed during the light phase of the diurnal cycle since these mice are sufficiently active during that time. Measurements were made for 30 minutes after 10 minutes of acclimation to the box (Opto-Varimex Unit, Columbus Instruments, Columbus, Ohio, USA). Counts of horizontal and vertical motion activity were monitored and quantitative analysis of locomotor activity (resting and ambulatory times), were assessed. The open field box was cleaned before testing each mouse. Each 30 minutes of testing was analyzed as three periods of 10 minute intervals to study the influence of novelty and measured behavior. Mice were coded and investigators were blinded to the genotype and analysis. Testing started on week 4 and performed every other week until the mice could no longer participate.
Efficacy studies. Efficacy was measured using endpoints that clearly indicate neuroprotective function. These include amelioration of degenerative changes in the spinal cord, improved motor function, and prolonged survival. […]

G93A mice = assay: climbing assay for extrapyramidal effects; type: in vivo, mouse; conditions: 0.01, 0.1, 1 mg/kg
Source text: A climbing assay was used to test for extrapyramidal effects.

[9] = system: healthy volunteers and chronic schizophrenic patients; conditions: cited from earlier work
[10] = system: PC12 cells expressing wild-type SOD1; assay: MG132-induced SOD1 protein aggregation; type: cell-based; conditions: cells treated with MG132
Source text: as §1

[11] = system: PC12 cells expressing no SOD1, wild type SOD1 and G85R SOD1; assay: sensitivity of PC12 cells to proteasome inhibitor (cell viability, calcein-AM); type: cell-based; conditions: Rattus norvegicus, PC-12

Cc1nc2n(c(=O)c1CCN1CCC(c3noc4cc(F)ccc34)CC1)CCCC2 [Risperidone]
Activity in Protection Assay [1]: Inactive

CN(C)CC/C=C1/c2ccccc2Sc2ccc(Cl)cc21 [Chlorprothixene]
Activity in Protection Assay [1]: Inactive

CN(C)CCCN1c2ccccc2Sc2ccc(Cl)cc21 [Chlorpromazine]
Activity in Protection Assay [1]: Inactive

CC(C)C[C@H](NC(=O)[C@H](Cc1ccccc1)NC(=O)c1cnccn1)B(O)O [bortezomib]
sensitivity of PC12 cells to proteasome inhibition ([2]; compared with MG132): Qualitatively similar results

(+) butaclamol
activity in the protection assay [1]: showed activity
times more potent than the (−) isomer [3]: about one hundred
times more potent than the (−) isomer [4]: one thousand
effect on epinephrine-induced mortality [5]: antagonized epinephrine-induced mortality

CN1CCN(C2=Nc3ccccc3Oc3ccc(Cl)cc32)CC1 [Loxapine]
Activity in Protection Assay [1]: Inactive

O=c1[nH]c2ccccc2n1C1CCN(CCCC(c2ccc(F)cc2)c2ccc(F)cc2)CC1 [Pimozide]
Activity in Protection Assay [1]: Inactive

O=C(CCCN1CCC(O)(c2ccc(Cl)cc2)CC1)c1ccc(F)cc1 [Haloperidol]
Activity in Protection Assay [1]: Inactive

CN1CCN(CCCN2c3ccccc3Sc3ccc(C(F)(F)F)cc32)CC1 [Trifluoperazine]
Activity in Protection Assay [1]: Inactive

OCCN1CCN(CCCN2c3ccccc3Sc3ccc(Cl)cc32)CC1 [Perphenazine]
Activity in Protection Assay [1]: Inactive

C[C@@H]1C[C@H]2O[C@@H]2/C=C\C=C\C(=O)Cc2c(Cl)c(O)cc(O)c2C(=O)O1 [Radicicol]
protection of cell viability from MG132 [1]: protects
protection of cell viability from MG132 ([1]; listed as radicicol): increased cell viability in a dose-dependent manner
EC50 [1]: ~530 nM
Protection Efficacy % Viability ([1]; at the concentration given): 80%
Protection Efficacy Conc. [1]: 0.7 µM
Aggregation [6]: Moderate
proportion of cells with aggregates ([6]; G85R or G93A mutant SOD1 cells, co-treated with MG132, 75% without radicicol): 25%
suppression of MG132-induced mutant SOD1 aggregation ([6]; G93A SOD1 or G85R SOD1 cells, MG132 co-treatment): decreases mutant SOD1 aggregation
formation of protein aggregates ([7]; 100 nM MG132 co-treatment): reduced formation of protein aggregates
IC50 (cellular toxicity): ~30000 nM

CC(C)(C)[C@]1(O)CCN2C[C@H]3c4ccccc4CCc4cccc(c43)[C@@H]2C1 [Butaclamol]
activity in the protection assay [1]: showed activity
EC50 [1]: ~840 nM
Protection Efficacy Conc. [1]: 15 µM
Activity in Protection Assay [1]: Active
Protection Efficacy % Viability ([1]; rat): 80%
Aggregation [6]: Inactive
activity in the aggregation assay [6]: inactive
IC50 (cellular toxicity): < 25000 nM
gross lumbar spinal cord (atrophy) ([8]; 0.1 mg/kg, 120 days, WT 3.18±0.24×10^6, untreated 2.25±0.49×10^6, P<0.01): 2.97±0.31×10^6 μm^3
ventral horn of the lumbar spinal cord (atrophy) ([8]; 0.1 mg/kg, 120 days, WT 7.29±0.41×10^5, untreated 5.28±0.63×10^5, P<0.05): 6.55±0.37×10^5 μm
ventral horn neuronal count ([8]; 0.1 mg/kg, 120 days, WT 98.1±12.9, untreated 22.4±15.8, P<0.01): 57.3±18.2
reactive astrogliosis (GFAP expression, lumbar spinal cord) ([8]; butaclamol treatment): ameliorated; also recorded: markedly attenuates reactive astrogliosis
open field motor activity ([8]; high dose 1 mg/kg, throughout treatment, vs wild type or untreated G93A): significantly reduced motor activity outcome measures
Average life span ([8]; high dose (1 mg/kg once a day, i.p.)): 123.7 ± 6.2 days
open field behavior (distance traveled, resting time, ambulatory count, ambulatory time) ([8]; low dose 0.01 mg/kg, 6 week to 12-13 week): no significant effect
Average life span ([8]; low dose (0.01 mg/kg once a day, i.p.)): 129.3 ± 4.1 days
open field behavior ([8]; medium dose 0.1 mg/kg, 6 weeks to 12-13 weeks, 0.1 mg/kg): not significantly different from wild type mice
Average life span ([8]; medium dose (0.1 mg/kg once a day, i.p.)): 141.0 ± 5.3 days
extended survival as compared with untreated G93A mice ([8]; medium dose (0.1 mg/kg)): 12.7%
extrapyramidal effects (G93A mice): No significant extrapyramidal effects
limiting effects in Phase I ([9]; healthy volunteers, single and repeated doses up to 32 mg/day): sedation and extrapyramidal effects
dose producing extrapyramidal effects in patients ([9]; human, in vivo): ≥ 10 mg/day
neuroleptic activity in chronic schizophrenic patients ([9]; long-term, 50 mg/day): active neuroleptic agent

CN1CCN(C2=Nc3cc(Cl)ccc3Nc3ccccc32)CC1 [Clozapine]
Activity in Protection Assay [1]: Inactive

CC(C)C[C@@H](C=O)NC(=O)[C@H](CC(C)C)NC(=O)[C@H](CC(C)C)NC(=O)OCc1ccccc1 [MG132] (Cbz-Leu-Leu-Leu-aldehyde)
cells containing protein aggregates ([6]; G85R SOD1 cells treated with MG132): up to 75%
cells with protein aggregates ([7]; G93A SOD1 cells following treatment with MG132): ~75%
protein aggregation in wild-type SOD1 cells [10]: no aggregation was observed
IC50 [11]: ~400 nM
toxicity at 24 hr ([2]; 100 nM, 24 hr, any of the cell lines): no toxicity
toxicity after 48 hours ([2]; 100 nM, 48 hours): selectively toxic to the G93A SOD1 cell line
fold more sensitive than the other PC12 lines ([2]; G93A SOD1 cells vs no SOD1, wild type, G85R): approximately 5 fold
IC50 ([2]; Rattus norvegicus, PC-12, read-out: IC50 (cell viability)): ~75 nM
